Assay results reported in patent publication US20250092044A1, “Kinase Inhibitors” (Incyte Corporation, priority 2023, published 2025).

How the values were obtained:
[1] = target: catalytic domain (JH1) of human JAK2 (Homo sapiens (Human), UniProt O60674); assay: JAK2 LanthaScreen JH1 Binding Assay; conditions: read-out: JH1 Bind IC50
Procedure: JAK2 JH1 binding assay utilizes catalytic domain (JH1, amino acids 826-1132) of human JAK2 expressed as N-terminal FLAG-tagged, biotinylated protein in a baculovirus expression system (Carna Biosciences, Product #08-445-20N). The assay was conducted in black 384-well polystyrene plates in a final reaction volume of 20 μL. JAK2 JH1 (1.5 nM) was incubated with compounds (100 nL serially diluted in DMSO) in the presence of 50 nM fluorescent JAK2-JH1 tracer and 0.5 nM Streptavidin-Tb cryptate (Cisbio Part #610SATLB) in assay buffer (50 mM Tris, pH=7.5, 10 mM MgCl2, 0.01% Brij-35, 0.1% BSA, 1 mM EGTA, 5% Glycerol and 5 mM DTT). Non-specific binding was accessed in the presence of 2 mM ATP. After incubation for 2 hours at 25° C., LanthaScreen signals were read on a PHERAstar FS plate reader (BMG LABTECH). Data was analyzed with IDBS XLfit and GraphPad Prism 5.0 software using a four parameter dose response curve to determine IC50 for each compound.

FLT3 [2] = target: FLT3 (Homo sapiens (Human), UniProt P36888); assay: FLT3 Enzymatic Assay; format: biochemical; conditions: 1 mM ATP
In short: (§1)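 Room-temperature HTRF kinase assay (665/620 nm ratio) with 0.011 nM FLT3, 1 mM ATP, 500 nM biotinylated TK substrate in HEPES pH 7.0 buffer with MgCl2 and DTT; 0.5% DMSO final. Read after 60 min incubation; IC50 fitted from percent control activity versus log concentration, no-ATP wells as negative control.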

FLT3 [3] = assay: FLT3 Enzymatic Assay; format: biochemical
In short: as §1

TRKA [4] = target: TRKA (Homo sapiens (Human), UniProt P04629); assay: TRKA Enzymatic Assay; format: biochemical; conditions: 1 mM ATP
In short: (§2)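 Reaction contained 0.58 nM TRKA, 1 mM ATP, 500 nM biotinylated TK substrate and 62.5 nM SEB reagent in HEPES 50 mM pH 7.0 with 10 mM MgCl2, 1 mM DTT and 0.1 mM orthovanadate, 0.5% DMSO, ATP-initiated. After 60 min at room temperature, the TR-FRET 665/620 nm ratio was read. IC50 was fitted from percent control activity versus log concentration, with DMSO and no-ATP wells as controls.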

TRKA [5] = assay: TRKA Enzymatic Assay; format: biochemical
In short: as §2

[6] = tested on: STAT5 (Tyr694) phosphorylation in SET-2 cells; assay: STAT5 (Tyr694) Phosphorylation Cell Based Assay; conditions: Homo sapiens, 2 hours, read-out: SET2 IC50
In short: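 SET-2 cells in RPMI with 10% FBS were exposed to compound for 2 h at 37 °C (0.5% DMSO final). After lysis, phospho-STAT5 (Tyr694) was read by HTRF (665/620 ratio) after 24 h antibody incubation at room temperature. IC50 was fitted from percent control activity versus log concentration.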

Chain of catalytic domain (JH1) of human JAK2 (O60674 826-1132): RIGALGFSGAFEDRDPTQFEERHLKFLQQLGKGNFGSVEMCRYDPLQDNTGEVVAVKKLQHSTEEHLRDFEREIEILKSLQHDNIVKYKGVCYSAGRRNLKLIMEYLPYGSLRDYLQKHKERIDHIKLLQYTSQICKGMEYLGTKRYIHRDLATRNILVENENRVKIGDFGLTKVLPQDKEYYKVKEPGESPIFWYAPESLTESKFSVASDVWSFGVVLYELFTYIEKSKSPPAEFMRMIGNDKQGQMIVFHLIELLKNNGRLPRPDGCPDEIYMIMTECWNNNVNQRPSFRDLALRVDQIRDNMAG
Chain of FLT3 (Homo sapiens (Human), UniProt P36888) (P36888 27-993, species assumed): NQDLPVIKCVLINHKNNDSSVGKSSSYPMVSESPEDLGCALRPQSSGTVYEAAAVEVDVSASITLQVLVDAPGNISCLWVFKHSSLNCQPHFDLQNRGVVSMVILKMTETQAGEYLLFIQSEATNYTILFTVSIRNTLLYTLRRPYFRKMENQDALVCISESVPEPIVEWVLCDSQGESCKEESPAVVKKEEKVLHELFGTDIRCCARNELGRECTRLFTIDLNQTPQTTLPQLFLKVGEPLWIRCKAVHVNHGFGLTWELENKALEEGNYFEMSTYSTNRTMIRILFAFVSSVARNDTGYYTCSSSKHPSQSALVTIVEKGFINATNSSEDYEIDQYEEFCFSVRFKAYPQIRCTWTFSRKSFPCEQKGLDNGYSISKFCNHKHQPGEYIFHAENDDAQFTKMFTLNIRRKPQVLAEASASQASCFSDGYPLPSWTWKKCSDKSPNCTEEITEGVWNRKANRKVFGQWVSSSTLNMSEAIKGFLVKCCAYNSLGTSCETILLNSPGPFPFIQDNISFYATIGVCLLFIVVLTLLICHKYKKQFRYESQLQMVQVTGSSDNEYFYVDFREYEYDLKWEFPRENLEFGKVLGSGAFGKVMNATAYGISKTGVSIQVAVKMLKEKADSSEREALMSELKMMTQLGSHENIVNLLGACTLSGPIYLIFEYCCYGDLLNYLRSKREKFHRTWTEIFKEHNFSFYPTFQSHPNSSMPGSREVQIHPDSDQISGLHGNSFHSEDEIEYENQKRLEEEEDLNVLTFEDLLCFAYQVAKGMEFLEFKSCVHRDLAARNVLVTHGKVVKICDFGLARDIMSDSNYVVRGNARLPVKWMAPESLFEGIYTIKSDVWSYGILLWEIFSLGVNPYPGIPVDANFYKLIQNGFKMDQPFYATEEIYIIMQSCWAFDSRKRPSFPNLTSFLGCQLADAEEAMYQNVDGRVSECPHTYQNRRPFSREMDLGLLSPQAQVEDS
Chain of TRKA (Homo sapiens (Human), UniProt P04629) (P04629 33-796, species assumed): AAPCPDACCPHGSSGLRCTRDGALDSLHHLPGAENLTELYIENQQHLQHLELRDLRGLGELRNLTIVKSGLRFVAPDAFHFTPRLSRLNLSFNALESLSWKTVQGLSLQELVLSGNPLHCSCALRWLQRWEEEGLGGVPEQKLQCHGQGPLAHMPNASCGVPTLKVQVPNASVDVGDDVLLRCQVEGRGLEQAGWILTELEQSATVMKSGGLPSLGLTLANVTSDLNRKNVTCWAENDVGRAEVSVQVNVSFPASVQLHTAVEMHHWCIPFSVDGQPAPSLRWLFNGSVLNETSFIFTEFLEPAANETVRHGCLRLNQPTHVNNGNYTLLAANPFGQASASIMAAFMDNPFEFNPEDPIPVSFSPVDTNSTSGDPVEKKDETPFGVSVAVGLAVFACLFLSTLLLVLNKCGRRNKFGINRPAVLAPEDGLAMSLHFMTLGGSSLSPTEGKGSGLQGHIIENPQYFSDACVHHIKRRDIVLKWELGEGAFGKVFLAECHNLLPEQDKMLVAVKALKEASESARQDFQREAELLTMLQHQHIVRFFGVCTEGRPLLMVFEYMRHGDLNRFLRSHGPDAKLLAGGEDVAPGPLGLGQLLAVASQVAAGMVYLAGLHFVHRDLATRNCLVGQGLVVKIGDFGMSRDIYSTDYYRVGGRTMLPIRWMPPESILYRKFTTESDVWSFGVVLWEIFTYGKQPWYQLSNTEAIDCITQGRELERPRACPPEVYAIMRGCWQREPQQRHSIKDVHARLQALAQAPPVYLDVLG

SMILES	IC50 [1] [nM]	IC50 (FLT3 [2]) [nM]	Selectivity FLT3/JH2 V617F (FLT3 [3])	IC50 (TRKA [4]) [nM]	Selectivity TRKA/JH2 V617F (TRKA [5])	IC50 [6] [nM]
[2H]C([2H])([2H])N(Cc1ccc(-c2[nH]c3ncc4c(c3c2-c2ccc(OCCOC)cc2)n([C@@H]2CC[C@@H](NC(=O)OC)C2)c(=O)n4C([2H])([2H])[2H])cc1)C([2H])([2H])[2H] [Example 27, Methyl ((1R,3R)-3-(7-(4-((bis(methyl-d3)amino)methyl)phenyl)-8-(4-(2-methoxyethoxy)phenyl)-3-(methyl-d3)-2-oxo-3,6-dihydroimidazo[4,5-d]pyrrolo[2,3-b]pyridin-1(2H)-yl)cyclopentyl)carbamate]	> 1000	250 to 1250	*** (selectivity of >1500-fold to ≤1750-fold)	1250 to 2500	***** (selectivity of >5000-fold to ≤12500-fold)	≤ 300
[2H]C([2H])([2H])n1c(=O)n([C@@H]2CC[C@@H](NC(=O)OC)C2)c2c3c(-c4ccc5c(cnn5C(C)C)c4)c(-c4ccc(CN(C)C)cc4)[nH]c3ncc21 [Example 26, Methyl ((1R,3R)-3-(7-(4-((dimethylamino)methyl)phenyl)-8-(1-isopropyl-1H-indazol-5-yl)-3-(methyl-d3)-2-oxo-3,6-dihydroimidazo[4,5-d]pyrrolo[2,3-b]pyridin-1(2H)-yl)cyclopentyl)carbamate]	> 1000	250 to 1250	**** (selectivity of >1750-fold to ≤5000-fold)	1250 to 2500	***** (selectivity of >5000-fold to ≤12500-fold)	≤ 300
[2H]C([2H])([2H])n1c(=O)n([C@@H]2CC[C@@H](NC(=O)OC)C2)c2c3c(-c4ccc5c(c4)COC5(C)C)c(-c4ccc(C(=O)N(C)C)cc4)[nH]c3ncc21 [Example 30, methyl ((1R,3R)-3-(8-(1,1-dimethyl-1,3-dihydroisobenzofuran-5-yl)-7-(4-(dimethylcarbamoyl)phenyl)-3-(methyl-d3)-2-oxo-3,6-dihydroimidazo[4,5-d]pyrrolo[2,3-b]pyridin-1(2H)-yl)cyclopentyl)carbamate]	> 1000	250 to 1250	***** (selectivity of >5000-fold to ≤12500-fold)	250 to 1250	***** (selectivity of >5000-fold to ≤12500-fold)	≤ 300
COCCN(C)C(=O)c1ccc(-c2[nH]c3ncc4c(c3c2-c2ccc3c(cnn3C(C)C)c2)n([C@@H]2CC[C@@H](NC(=O)OC)C2)c(=O)n4C)cc1F [Example 15, Methyl ((1R,3R)-3-(7-(3-fluoro-4-((2-methoxyethyl)(methyl)carbamoyl)phenyl)-8-(1-isopropyl-1H-indazol-5-yl)-3-methyl-2-oxo-3,6-dihydroimidazo[4,5-d]pyrrolo[2,3-b]pyridin-1(2H)-yl)cyclopentyl)carbamate]	> 1000	1250 to 2500	****** (selectivity of >12500-fold)	> 2500	****** (selectivity of >12500-fold)	≤ 300
CCNC(=O)c1ccc(-c2[nH]c3ncc4c(c3c2-c2ccc3c(cnn3C(C)C)c2)n([C@@H]2CC[C@@H](NC(=O)OC)C2)c(=O)n4C)cc1F [Example 6, Methyl ((1R,3R)-3-(7-(4-(ethylcarbamoyl)-3-fluorophenyl)-8-(1-isopropyl-1H-indazol-5-yl)-3-methyl-2-oxo-3,6-dihydroimidazo[4,5-d]pyrrolo[2,3-b]pyridin-1(2H)-yl)cyclopentyl)carbamate]	> 1000	1250 to 2500	***** (selectivity of >5000-fold to ≤12500-fold)	1250 to 2500	***** (selectivity of >5000-fold to ≤12500-fold)	≤ 300
COc1nn(C)cc1-c1[nH]c2ncc3c(c2c1-c1ccc2c(cnn2C)c1)n(C1CCOCC1)c(=O)n3C [Comparative Example A, reference compound]	> 1000	–	* (selectivity of ≤500-fold)	–	** (selectivity of >500-fold to ≤1500-fold)	–
COc1nn(C)cc1-c1[nH]c2ncc3c(c2c1-c1ccc2c(cnn2C)c1)n([C@H]1CC[C@@H](CC#N)CC1)c(=O)n3C [E, reference compound]	> 1000	–	* (selectivity of ≤500-fold)	–	** (selectivity of >500-fold to ≤1500-fold)	–
COC(=O)N[C@@H]1CC[C@@H](n2c(=O)n(C)c3cnc4[nH]c(-c5ccc(CN(C)C)cc5)c(-c5ccc(F)cc5)c4c32)C1 [Example 28, Methyl ((1R,3R)-3-(7-(4-((dimethylamino)methyl)phenyl)-8-(4-fluorophenyl)-3-methyl-2-oxo-3,6-dihydroimidazo[4,5-d]pyrrolo[2,3-b]pyridin-1(2H)-yl)cyclopentyl)carbamate]	> 1000	250 to 1250	** (selectivity of >500-fold to ≤1500-fold)	> 2500	**** (selectivity of >1750-fold to ≤5000-fold)	300 to 800
CCNC(=O)c1ccc(-c2[nH]c3ncc4c(c3c2-c2ccc3c(cnn3C(C)C)c2)n([C@@H]2CC[C@@H](NC(=O)OC)C2)c(=O)n4C)cc1 [Example 23, Methyl ((1R,3R)-3-(7-(4-(ethylcarbamoyl)phenyl)-8-(1-isopropyl-1H-indazol-5-yl)-3-methyl-2-oxo-3,6-dihydroimidazo[4,5-d]pyrrolo[2,3-b]pyridin-1(2H)-yl)cyclopentyl)carbamate]	> 1000	250 to 1250	**** (selectivity of >1750-fold to ≤5000-fold)	1250 to 2500	***** (selectivity of >5000-fold to ≤12500-fold)	≤ 300
CNC(=O)c1ccc(-c2[nH]c3ncc4c(c3c2-c2ccc3c(cnn3C(C)C)c2)n([C@@H]2CC[C@@H](NC(=O)OC)C2)c(=O)n4C)cc1 [Example 21, Methyl ((1R,3R)-3-(8-(1-isopropyl-1H-indazol-5-yl)-3-methyl-7-(4-(methylcarbamoyl)phenyl)-2-oxo-3,6-dihydroimidazo[4,5-d]pyrrolo[2,3-b]pyridin-1(2H)-yl)cyclopentyl)carbamate]	> 1000	250 to 1250	***** (selectivity of >5000-fold to ≤12500-fold)	1250 to 2500	****** (selectivity of >12500-fold)	300 to 800
COC(=O)N[C@@H]1CC[C@@H](n2c(=O)n(C)c3cnc4[nH]c(-c5ccc(C(=O)N6CCOCC6)c(F)c5)c(-c5ccc6c(cnn6C(C)C)c5)c4c32)C1 [Example 16, Methyl ((1R,3R)-3-(7-(3-fluoro-4-(morpholine-4-carbonyl)phenyl)-8-(1-isopropyl-1H-indazol-5-yl)-3-methyl-2-oxo-3,6-dihydroimidazo[4,5-d]pyrrolo[2,3-b]pyridin-1(2H)-yl)cyclopentyl)carbamate]	> 1000	1250 to 2500	****** (selectivity of >12500-fold)	1250 to 2500	****** (selectivity of >12500-fold)	≤ 300
[2H]C([2H])([2H])n1ncc2cc(-c3c(-c4cn(C)nc4OC)[nH]c4ncc5c(c34)n(C3CCOCC3)c(=O)n5C)ccc21 [Comparative Example B, reference compound]	> 1000	–	* (selectivity of ≤500-fold)	> 2500	** (selectivity of >500-fold to ≤1500-fold)	–
